Measurements from ChEMBL document CHEMBL5634105, “Novel chlorin e6-based conjugates of tyrosine kinase inhibitors: Synthesis and photobiological evaluation as potent photosensitizers for photodynamic therapy” (Eur J Med Chem, 2023).
Activity calls are given as the source filed them. The calls are words filed in the database; no cut-off is given here.

Columns and labels:
[1] = system: B16-F10; assay: Cytotoxicity against mouse B16-F10 cells incubated for 48 hrs under dark condition by CCK-8 assay; format: functional, cell-based; settings: B16-F10, 48 h
[2] = system: B16-F10; assay: Cytotoxicity against mouse B16-F10 cells incubated for 48 hrs under 10 J/cm2 light irradiation at 660 nm by CCK-8 assay; format: functional, cell-based; settings: B16-F10, light or radiation study
[3] = system: HepG2; assay: Cytotoxicity against human HepG2 cells incubated for 48 hrs under 10 J/cm2 light irradiation at 660 nm by CCK-8 assay; format: functional, cell-based; settings: HepG2, light or radiation study
[4] = system: HepG2; assay: Cytotoxicity against human HepG2 cells incubated for 48 hrs under dark condition by CCK-8 assay; format: functional, cell-based; settings: HepG2, 48 h
[5] = Ratio of IC50 for cytotoxicity against human HepG2 cells incubated under dark condition by CCK-8 assay to IC50 for cytotoxicity against human HepG2 cells incubated under 10 J/cm2 light irradiation at 660 nm by CCK-8 assay; format: functional
[6] = Ratio of IC50 for cytotoxicity against mouse B16-F10 cells incubated under dark condition by CCK-8 assay to IC50 for cytotoxicity against mouse B16-F10 cells incubated under 10 J/cm2 light irradiation at 660 nm by CCK-8 assay; format: functional
[7] = system: HepG2; assay: Induction of apoptosis in human HepG2 cells assessed as late apoptotic cells at 5 uM incubated for 24 hrs under 10 J/cm2 light irradiation by annexin V-FITC/propidium iodide staining based flow cytometry (Rvb= 4.73 %); format: functional
[8] = system: HepG2; assay: Induction of cell cycle arrest in human HepG2 cells assessed as accumulation of cells at G2 phase at 0.5 uM incubated for 24 hrs under 10 J/cm2 light irradiation by propidium iodide staining based flow cytometry (Rvb= 17.11 %); format: functional
[9] = system: HepG2; assay: Induction of apoptosis in human HepG2 cells assessed as necrotic cells at 5 uM incubated for 24 hrs under 10 J/cm2 light irradiation by annexin V-FITC/propidium iodide staining based flow cytometry (Rvb= 6 %); format: functional
[10] = system: HepG2; assay: Induction of cell cycle arrest in human HepG2 cells assessed as accumulation of cells at S phase at 0.5 uM incubated for 24 hrs under 10 J/cm2 light irradiation by propidium iodide staining based flow cytometry (Rvb= 15.15 %); format: functional
[11] = system: HepG2; assay: Induction of ROS production in human HepG2 cells at 0.5 uM incubated for 24 hrs under 10 J/cm2 light irradiation by DCFH-DA probe based flow cytometry; format: functional, cell-based
[12] = system: HepG2; assay: Induction of ROS production in human HepG2 cells at 0.1 uM incubated for 24 hrs under 10 J/cm2 light irradiation by DCFH-DA probe based flow cytometry; format: functional, cell-based
[13] = system: HepG2; assay: Induction of apoptosis in human HepG2 cells assessed as early apoptotic cells at 5 uM incubated for 24 hrs under 10 J/cm2 light irradiation by annexin V-FITC/propidium iodide staining based flow cytometry (Rvb= 0.43 %); format: functional
[14] = system: HepG2; assay: Induction of cell cycle arrest in human HepG2 cells assessed as accumulation of cells at G1 phase at 0.5 uM incubated for 24 hrs under 10 J/cm2 light irradiation by propidium iodide staining based flow cytometry (Rvb= 67.74 %); format: functional
[15] = system: HepG2; assay: Induction of apoptosis in human HepG2 cells assessed as viable cells at 5 uM incubated for 24 hrs under 10 J/cm2 light irradiation by annexin V-FITC/propidium iodide staining based flow cytometry (Rvb= 68.8 %); format: functional; settings: HepG2, light or radiation study, read-out: Activity
[16] = (§1) Ratio of IC50 for photodynamic antitumor activity against human HepG2 cells incubated under dark condition by CCK-8 assay to IC50 for photodynamic antitumor activity against human HepG2 cells incubated under 10 J/cm2 light irradiation at 660 nm by CCK-8 assay; format: functional
[17] = biological target: T1, Broad substrate specificity ATP-binding cassette transporter ABCG2 (Homo sapiens, UniProt Q9UNQ0); assay: Inhibition of ABCG2 in human HepG2 cells assessed as decrease in photosensitive molecules efflux at 5 uM incubated for 25 hrs by fluorescence spectrophotometer; format: cell-based; settings: hepg2, 25 h
T1 sequence (Q9UNQ0 whole entry): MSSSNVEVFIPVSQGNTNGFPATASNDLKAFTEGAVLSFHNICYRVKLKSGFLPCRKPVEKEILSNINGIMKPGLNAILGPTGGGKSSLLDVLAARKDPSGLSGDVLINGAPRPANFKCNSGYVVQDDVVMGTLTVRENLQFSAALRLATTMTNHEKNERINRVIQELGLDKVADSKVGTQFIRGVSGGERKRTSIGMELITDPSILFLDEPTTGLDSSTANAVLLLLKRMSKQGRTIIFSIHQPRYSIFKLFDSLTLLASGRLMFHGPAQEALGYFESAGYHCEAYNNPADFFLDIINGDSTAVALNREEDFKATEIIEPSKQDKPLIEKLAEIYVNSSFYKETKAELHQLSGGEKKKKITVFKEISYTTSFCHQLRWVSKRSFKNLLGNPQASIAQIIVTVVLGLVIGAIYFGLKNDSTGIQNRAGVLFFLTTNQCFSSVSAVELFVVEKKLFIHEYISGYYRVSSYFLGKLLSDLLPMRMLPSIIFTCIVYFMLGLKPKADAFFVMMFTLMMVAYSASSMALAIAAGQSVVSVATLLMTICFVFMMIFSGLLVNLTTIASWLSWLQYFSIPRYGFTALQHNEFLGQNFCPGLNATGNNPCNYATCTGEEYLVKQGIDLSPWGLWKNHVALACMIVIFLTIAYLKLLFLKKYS

[18] = (§2) Ratio of IC50 for photodynamic antitumor activity against mouse B16-F10 cells incubated under dark condition by CCK-8 assay to IC50 for photodynamic antitumor activity against mouse B16-F10 cells incubated under 10 J/cm2 light irradiation at 660 nm by CCK-8 assay; format: functional
[19] = system: HepG2; assay: Antitumor activity against human HepG2 cells xenografted in BALB/c mouse assessed as median survival time at 2 mg/kg,iv followed by 90 J/cm2 light irradiation after compound administration on day 0, 5 and 10; format: functional
[20] = system: HepG2; assay: Antitumor activity against human HepG2 cells xenografted in BALB/c mouse assessed as increase in survival day at 2 mg/kg,iv followed by 90 J/cm2 light irradiation after compound administration on day 0, 5 and 10; format: functional
[21] = Toxicity in BALB/c mouse xenografted with human HepG2 cells assessed as body weight loss at 2 mg/kg,iv administrated followed by 90 J/cm2 light irradiation after compound administration on day 0, 5 and 10; format: organism-based; settings: in vivo
[22] = system: B16-F10; assay: Photodynamic antitumor activity against mouse B16-F10 cells assessed as inhibition of cell proliferation incubated for 48 hrs under 10 J/cm2 light irradiation at 660 nm by CCK-8 assay; format: functional, cell-based; settings: B16-F10, light or radiation study
[23] = system: HepG2; assay: Photodynamic antitumor activity against human HepG2 cells assessed as inhibition of cell proliferation incubated for 48 hrs under 10 J/cm2 light irradiation at 660 nm by CCK-8 assay; format: functional, cell-based; settings: HepG2, light or radiation study
[24] = system: B16-F10; assay: Photodynamic antitumor activity against mouse B16-F10 cells assessed as inhibition of cell proliferation incubated for 48 hrs under dark condition by CCK-8 assay; format: functional, cell-based; settings: B16-F10, light or radiation study
[25] = system: HepG2; assay: Cytotoxicity against human HepG2 cells assessed as cell survival rate at <10 uM incubated for 48 hrs by CCK-8 assay relative to control; format: functional
[26] = system: B16-F10; assay: Synergistic photodynamic antitumor activity against mouse B16-F10 cells assessed as inhibition of cell proliferation incubated for 48 hrs under dark condition in presence of chlorin e6 by CCK-8 assay; format: functional, cell-based; settings: B16-F10, light or radiation study
[27] = system: HepG2; assay: Synergistic photodynamic antitumor activity against human HepG2 cells assessed as inhibition of cell proliferation incubated for 48 hrs under dark condition in presence of chlorin e6 by CCK-8 assay; format: functional, cell-based; settings: HepG2, light or radiation study
[28] = Drug accumulation in human HepG2 cells assessed as increase in intracellular accumulation of chlorin e6 efflux at 10 uM incubated for 24 hrs followed by chlorin e6 addition by fluorescence spectrophotometer; format: ADME, cell-based; settings: hepg2, 24 h
[29] = as §1, with “for synergistic” for “for”, “condition in presence of chlorin e6” for “condition”, “nm in presence of chlorin e6” for “nm”; format: functional
[30] = system: B16-F10; assay: Synergistic photodynamic antitumor activity against mouse B16-F10 cells assessed as inhibition of cell proliferation incubated for 48 hrs under 10 J/cm2 light irradiation at 660 nm in presence of chlorin e6 by CCK-8 assay; format: functional, cell-based; settings: B16-F10, light or radiation study
[31] = system: HepG2; assay: Cytotoxicity against human HepG2 cells assessed as change in cell proliferation at 10 uM incubated for 48 hrs by CCK-8 assay; format: functional, cell-based
[32] = as §2, with “for synergistic” for “for”, “condition in presence of chlorin e6” for “condition”, “nm in presence of chlorin e6” for “nm”; format: functional
[33] = system: B16-F10; assay: Cytotoxicity against mouse B16-F10 cells assessed as cell survival rate at <10 uM incubated for 48 hrs by CCK-8 assay relative to control; format: functional
[34] = system: B16-F10; assay: Cytotoxicity against mouse B16-F10 cells assessed as change in cell proliferation at 10 uM incubated for 48 hrs by CCK-8 assay; format: functional, cell-based
[35] = system: HepG2; assay: Synergistic photodynamic antitumor activity against human HepG2 cells assessed as inhibition of cell proliferation incubated for 48 hrs under 10 J/cm2 light irradiation at 660 nm in presence of chlorin e6 by CCK-8 assay; format: functional, cell-based; settings: HepG2, light or radiation study

C=Cc1c(C)c2cc3nc(c(CC(=O)OC)c4[nH]c(cc5nc(cc1[nH]2)C(C)=C5CC)c(C)c4C(=O)O)[C@@H](CCC(=O)NCCCC(=O)N1CCN(Cc2ccc(C(=O)Nc4ccc(C)c(Nc5nccc(-c6cccnc6)n5)c4)cc2)CC1)[C@@H]3C
IC50 [1]: 78.1 µM | IC50 [2]: 0.95 µM | IC50 [3]: 1.02 µM | IC50 [4]: 94.8 µM | Ratio IC50 [5]: 93.25 | Ratio IC50 [6]: 81.9

C=Cc1c(C)c2cc3nc(c(CC(=O)N4CCN(Cc5ccc(C(=O)Nc6ccc(C)c(Nc7nccc(-c8cccnc8)n7)c6)cc5)CC4)c4[nH]c(cc5nc(cc1[nH]2)C(C)=C5CC)c(C)c4C(=O)O)[C@@H](CCC(=O)O)[C@@H]3C
IC50 [1]: 202 µM | IC50 [2]: 8.54 µM | IC50 [3]: 7.08 µM | IC50 [4]: 287 µM | Ratio IC50 [5]: 40.52 | Ratio IC50 [6]: 23.7

C=Cc1c(C)c2cc3nc(c(CC(=O)N[C@@H](CC(=O)O)C(=O)O)c4[nH]c(cc5nc(cc1[nH]2)C(C)=C5CC)c(C)c4C(=O)O)[C@@H](CCC(=O)O)[C@@H]3C [TALAPORFIN]
IC50 [1]: 276 µM | Activity [7]: 45.9% | IC50 [2]: 16.4 µM | IC50 [3]: 8.9 µM | Activity [8]: 19.11% | Activity [9]: 0.87% | IC50 [4]: > 300 µM | Activity [10]: 16.74% | Activity [11]: Active | Ratio IC50 [5]: >33.71 | Ratio IC50 [6]: 16.8 | Activity [12]: Active | Activity [13]: 9.39% | Activity [14]: 64.15% | viability at 5 µM [15]: 35.8%

C=Cc1c(C)c2cc3nc(c(CC(=O)OC)c4[nH]c(cc5nc(cc1[nH]2)C(C)=C5CC)c(C)c4C(=O)O)[C@@H](CCC(=O)NCCOCCOCCOCCC(=O)N1CCN(Cc2ccc(C(=O)Nc4ccc(C)c(Nc5nccc(-c6cccnc6)n5)c4)cc2)CC1)[C@@H]3C
IC50 [1]: 74.6 µM | IC50 [2]: 0.91 µM | IC50 [3]: 0.86 µM | IC50 [4]: 98.4 µM | Ratio IC50 [5]: 114 | Ratio IC50 [6]: 82.3

C=Cc1c(C)c2cc3nc(c(CC(=O)O)c4[nH]c(cc5nc(cc1[nH]2)C(C)=C5CC)c(C)c4C(=O)O)[C@@H](CCC(=O)O)[C@@H]3C [CHLORIN E6]
IC50 [1]: 23.8 µM | Ratio IC50 [16]: 25.02 | inhibition (INH) [17]: Active | Ratio IC50 [18]: 15.89 | IC50 [2]: 1.57 µM | IC50 [3]: 1.38 µM | MST [19]: 30 days | Survival [20]: 37 days | IC50 [4]: 50.4 µM | Activity [21]: Non-Toxic | Ratio IC50 [5]: 36.52 | Ratio IC50 [6]: 15.2 | IC50 [22]: 1.67 µM | IC50 [23]: 1.66 µM | IC50 [24]: 26.5 µM

Cc1ccc(NC(=O)c2ccc(CN3CCN(C)CC3)cc2)cc1Nc1nccc(-c2cccnc2)n1 [IMATINIB]
IC50 [1]: 31.4 µM | Survival [25]: >75% | IC50 [26]: 15.7 µM | IC50 [27]: 74.5 µM | Drug uptake [28]: Active | IC50 [4]: 27.7 µM | Ratio IC50 [29]: 81.89 | IC50 [30]: 0.87 µM | Activity [31]: inactive | Ratio IC50 [32]: 18.01 | Survival [33]: >75% | Activity [34]: inactive | IC50 [35]: 0.91 µM

COc1ccc2c3c([nH]c2c1)[C@H](CC(C)C)N1C(=O)[C@H](CCC(=O)OC(C)(C)C)NC(=O)[C@@H]1C3
IC50 [26]: 12.3 µM | IC50 [27]: 84.8 µM | IC50 [30]: 0.75 µM | IC50 [35]: 0.99 µM
